# Legend:
# [1] = Dissolution test in pH 7.4 PBS at 37° C.; assay type: physicochemical; conditions: for Release of EGCG in the first 20 minutes: 20 mg EGCG equivalent in 100 mL; for Visible solids during dissolution test: up to 24 hours
# Experimental: As an initial proposition, the dispersions, aEGCG and cEGCG were modeled with respect to pseudo-second order models according to equation 1 where t is time, Q is cumulative release, and Qe the final release and, and k2 the rate constant of pseudo-second order kinetics.
# Dissolution testing was performed in 100 mL of standard phosphate-buffered salines (pH 7.4) at 37° C. in a jacketed beaker. The temperature was precisely controlled by a Julabo Heating Circulator. EGCG concentration in the solution was in-situ monitored via an Ocean Optics USB2000+UV-VIS spectrometer equipped with an RT-2MM Dip Probe. The testing was performed with continuous stirring until all solids were dissolved and the medium was free of observable particles, or up to 24 hours. For early period of dissolution, the data acquisition density was relatively large to capture all sudden changes; while at later periods, the data acquisition frequency was reduced due to slow evolution in the medium. For each material, an equivalency of 20 mg EGCG was tested and the experiment was monitored until all solids were dissolved or up to 24 hours. Based on the dissolution data, all EGCG (˜20 mg) were released into the medium within the period of dissolution tests for all samples.
# [2] = Stability of dispersions of varying weight ratios, about 40° C./75% RH/30 days; assay type: physicochemical
# Experimental: For the four polymers identified, further stress tests were carried out on dispersions with varying weight ratios of EGCG to polymer as set forth in Example 8. In these experiments, stressing was done for 30 days at 75% relative humidity at 40° C. for 30 days. FIGS. 50-63 are the XRPD patterns of the prepared dispersions prior to stressing. FIGS. 75-78 are the XRPD patterns after stressing and these too show the samples to amorphous by XRPD. FIGS. 82, 83, and 85 show a peak indicative of NaCl, which is used in the salt both of the humidity chamber storing the samples. Thus, such a peak is not indicative of any crystalline EGCG in the corresponding dispersions. […] Based on the XRPD results, the post-stressing dispersions were x-ray amorphous (other than the NaCl peaks).
# 20 capsules of Teavigo™ were broken and the solids were suspended in ˜300 mL HPLC grade water and filtered to remove the solids. The resultant solution was clear with no evidence of solid particles observed. The solution was then dried under N2 purge until water is fully removed based on visual observation. Such generated EGCG solids were directly used for generating amorphous EGCG and solid dispersions.
# EGCG solid dispersions were prepared by lyophilization using four polymers including HPMC-AS, HPMC-P, Soluplus®, and cellulose acetate. Individual solutions of polymer (in dioxane) and EGCG (in water) were prepared. The EGCG aqueous solution was added into the polymer-dioxane solution slowly. Additional fresh dioxane were added into the samples followed by vigorous vortexing to reach a clear solution without visible solids or colloids.
# For lyophilization, each EGCG/polymer solution was frozen in a cold bath of dry ice/acetone (at a temperature of −78° C.). The sample vial was then kept in a lyophilizer at −30° C. for 1 day, −10° C. for 2 days, 0° C. for 1 day, and then 20° C. for 4 hours. Pure EGCG aqueous solution was lyophilized as well to generate amorphous EGCG (EGCG) as a reference material for comparison with the dispersions. The lyophilized materials are free flowing materials.
# [3] = Stress tests in simulated GI tract media (SGF and SIF), observed under PLM; assay type: physicochemical
# Experimental: For stress testing in media, solids of aEGCG and the dispersions were suspended in SGFs and SIFs (see Example 6), and the suspensions were observed under polarized light microscope from time to time to look for the evidence of birefringence and extinction (B/E) of the materials, which is the indication of the occurrence of crystallization in a material.
# Polarized light microscopy (PLM) was performed using a Leica DM LP microscope with cross polarizer. SEM was performed using a FEI Quanta 200 scanning electron microscope equipped with an Everhart Thornley (ET) detector. Images were collected and analyzed using xTm (v. 2.01) and XT Docu (v. 3.2) software, respectively. The thermogravimetric analyses (TGA) were performed using a TA Instruments Q5000 IR thermogravimetric analyzer. Each sample was placed in an aluminum sample pan and inserted into the TGA furnace. The furnace was first equilibrated at 25° C., and then heated under N2 at a rate of 10° C./min, up to a final temperature of 350° C. Modulated differential scanning calorimetry (mDSC) data were obtained on a TA Instruments Q2920 differential scanning calorimeter equipped with a refrigerated cooling system (RCS). The test was progressed by modulating temperature±0.8° C. every 60 seconds from 0 to 180° C. The reported glass transition temperature (Tg) is obtained from the inflection point of the step change in the reversing heat flow versus temperature curve.
# Solids were suspended in media including simulated gastric fluid (SGF) and simulated intestinal fluid (SIF), and observed under PLM from time to time up to 24 hours for evidence of crystallization indicative by the appearance of birefringence/extinctions. Because of the high solubility of aEGCG, more materials were suspended into the media compared with the dispersions.
# [4] = Stress test at about 40° C./75% RH for 11 days; assay type: physicochemical
# Experimental: The physical stability of aEGCG and the four dispersions were evaluated at different conditions including a typical stress condition of 40° C./75% RH for 11 days, and in media of SGF and SIF for 24 h. Table 1 summarizes the visual observations on the materials after they have been stressed at 40° C./75% RH for 11 days. The aEGCG became a hard material after stress, while all the dispersions were particles or soft aggregates.
# XRPD patterns were collected with a PANalytical X'Pert PRO MPD diffractometer using an incident beam of Cu radiation produced using an Optix long, fine-focus source. An elliptically graded multilayer mirror was used to focus Cu Kα X-rays through the specimen and onto the detector. Prior to the analysis, a silicon specimen (NIST SRM 640e) was analyzed to verify the observed position of the Si 111 peak is consistent with the NIST-certified position. A specimen of the sample was sandwiched between 3-μm-thick films and analyzed in transmission geometry. A beam-stop, short antiscatter extension, and antiscatter knife edge were used to minimize the background generated by air. Soller slits for the incident and diffracted beams were used to minimize broadening from axial divergence. Diffraction patterns were collected using a scanning position-sensitive detector (X'Celerator) located 240 mm from the specimen and Data Collector software v. 2.2b. […]
# [5] = values as low as; rodents and humans; cited from earlier work
# [6] = cited from earlier work
Release of EGCG in the first 20 minutes [1],Visible solids during dissolution test [1],Release profile (in words) [1],"XRPD of post-stressing solids ([2]; 40° C./75% RH, 30 days)","Color after stress ([2]; 40° C./75% RH, 30 days, visual observation)","Color as generated ([2]; before stress, visual observation)","Time to crystallization in SGF ([3]; suspended in SGF, PLM)","Time to crystallization in SIF ([3]; suspended in SIF, PLM)",Visual observation after stress [4],XRPD of post-stress samples [4],"Observations under PLM in SGF ([3]; simulated gastric fluid, up to 24 h, B/E = birefringence/extinction, indicates crystallization)","Observations under PLM in SIF ([3]; simulated intestinal fluid, up to 24 h, B/E = birefringence/extinction, indicates crystallization)",SMILES,Bioavailability [5],Share present in plasma in free form ([6]; Manach et al. 2005),"Improvement in bioavailability ([6]; coadministration of piperine, Lambert et al. 2004)"
approximately 93%,dissolved without visible solids,–,–,–,–,–,–,–,–,–,–,"O=C(O[C@@H]1Cc2c(O)cc(O)cc2O[C@@H]1c1cc(O)c(O)c(O)c1)c1cc(O)c(O)c(O)c1 [cEGCG, epigallocatechin gallate]",–,–,–
~100%,dissolved without visible solids,immediate dissolution,converted to crystalline EGCG,pink,"very light pink,",≤ 15 min,≤ 15 min,"pink hard material, agg",highly crystalline material,–,–,"O=C(O[C@@H]1Cc2c(O)cc(O)cc2O[C@@H]1c1cc(O)c(O)c(O)c1)c1cc(O)c(O)c(O)c1 [aEGCG, epigallocatechin gallate]",–,–,–
–,–,–,–,–,–,–,–,–,–,B/E observed in 15 min,B/E observed in 15 min,"O=C(O[C@@H]1Cc2c(O)cc(O)cc2O[C@@H]1c1cc(O)c(O)c(O)c1)c1cc(O)c(O)c(O)c1 [EGCG, epigallocatechin gallate]",2-5%,77-90%,30%

# Source: patent publication US20200323815A1, “AMORPHOUS DISPERSIONS OF EPIGALLOCATECHIN GALLATE” (AMRI SSCI, LLC, priority 2017, published 2020)
